Experimental data reported in the supplement of paper PMC10307832.

How the values were obtained:
Assay in all cases: relative viability (nuclei count vs DMSO), 5 days (fraction); higher = more cells survive
[1] = compound: COc1cc2c(Oc3ccc4[nH]c(C)cc4c3F)ncnc2cc1OCCCN1CCCC1 [Cediranib] + COc1cc2c(Oc3ccc(NC(=O)C4(C(=O)Nc5ccc(F)cc5)CC4)cc3F)ccnc2cc1OCCCN1CCOCC1 [Foretinib] (partner 0.25 µM)
Method in brief: (§1)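 Relative viability was taken as the ratio of nuclei in treated wells to nuclei in vehicle wells. Lung cancer cell lines in 1536-well plates received compounds by pin tool one day after seeding, either one drug alone or a fixed anchor-drug dose plus five library-drug doses (not always all listed) in √10 steps. Nuclei were counted on 4× images after 5 days of treatment, and values are medians of duplicate plates.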

[2] = compound: O=C(C[C@H]1NCCC[C@@H]1O)Cn1cnc2cc(Br)c(Cl)cc2c1=O (racemic) [Halofuginone] + CC(C)C[C@H](NC(=O)[C@H](Cc1ccccc1)NC(=O)c1cnccn1)B(O)O [Bortezomib] (partner 0.002 µM)
Method in brief: as §1

[3] = compound: O=C(C[C@H]1NCCC[C@@H]1O)Cn1cnc2cc(Br)c(Cl)cc2c1=O (racemic) [Halofuginone] + CCNC(=O)c1noc(-c2cc(C(C)C)c(O)cc2O)c1-c1ccc(CN2CCOCC2)cc1 [Luminespib] (partner 0.01 µM)
Method in brief: as §1

[4] = compound: COc1cc2c(Oc3ccc4[nH]c(C)cc4c3F)ncnc2cc1OCCCN1CCCC1 [Cediranib] + O=C(CCCCCCC(=O)Nc1ccccc1)NO [Vorinostat] (partner 1 µM)
Method in brief: as §1

| Cell Line | relative viability ([1]; first compound 0.04 µM) | relative viability ([1]; first compound 0.1265 µM) | relative viability ([1]; first compound 0.4 µM) | relative viability ([1]; first compound 1.265 µM) | relative viability ([1]; first compound 4 µM) | relative viability ([2]; first compound 0.001 µM) | relative viability ([2]; first compound 0.003162 µM) | relative viability ([2]; first compound 0.01 µM) | relative viability ([2]; first compound 0.03162 µM) | relative viability ([2]; first compound 0.1 µM) | relative viability ([3]; first compound 0.001 µM) | relative viability ([3]; first compound 0.003162 µM) | relative viability ([3]; first compound 0.01 µM) | relative viability ([3]; first compound 0.03162 µM) | relative viability ([3]; first compound 0.1 µM) | relative viability ([4]; first compound 0.04 µM) | relative viability ([4]; first compound 0.1265 µM) | relative viability ([4]; first compound 0.4 µM) | relative viability ([4]; first compound 1.265 µM) | relative viability ([4]; first compound 4 µM) |
| --- | --- | --- | --- | --- | --- | --- | --- | --- | --- | --- | --- | --- | --- | --- | --- | --- | --- | --- | --- | --- |
| 201T | 1.28 | 1.57 | 1.03 | 1.02 | 0.754 | 1.06 | 1.1 | 1.15 | 1.1 | 1.16 | 1.06 | 1.04 | 1.03 | 1.08 | 0.866 | 1.08 | 0.631 | 0.84 | 0.973 | 1.04 |
| A549 | 0.903 | 1.07 | 0.858 | 0.975 | 0.899 |  |  |  |  |  |  |  |  |  |  |  |  |  |  |  |
| A-427 | 1.12 |  | 0.948 | 0.925 | 0.942 | 1 | 0.869 | 1 | 0.954 | 0.932 | 1.08 | 0.934 | 0.913 | 0.818 | 0.733 | 0.846 |  | 0.835 | 0.853 | 0.882 |
| ABC-1 | 1.17 | 1.2 | 1.04 |  | 0.879 | 0.255 | 0.328 | 0.24 | 0.367 | 0.279 |  | 0.793 | 0.518 | 0.225 | 0.377 | 1.11 | 0.821 | 1.14 | 1.13 | 1.24 |
| BEN | 0.745 |  | 0.707 | 0.344 | 0.682 | 0.865 | 0.826 | 0.865 | 0.682 | 0.408 | 0.203 | 0.348 | 0.45 | 0.322 | 0.14 | 0.669 | 0.445 | 0.592 | 0.552 | 0.588 |
| CAL-12T | 1.1 | 1.02 | 1.09 | 1.12 | 1.2 | 1.13 | 1.04 |  | 1.37 | 0.894 | 0.73 | 0.548 | 0.489 | 0.423 | 0.14 | 0.942 | 0.808 | 0.772 | 0.701 | 1.05 |
| COR-L23 | 0.943 | 0.938 | 0.916 | 1.05 | 1.09 | 1.15 | 1.1 | 0.963 | 0.965 | 0.184 | 0.819 | 0.636 | 0.699 | 0.368 | 0.211 | 0.52 | 0.428 | 0.412 | 0.433 | 0.458 |
| COR-L 105 | 1.04 | 1.38 | 0.931 | 0.904 | 1.22 | 1.01 | 0.86 | 0.769 | 0.674 | 0.44 | 0.668 | 0.606 | 0.694 | 0.639 | 0.532 | 0.921 | 0.847 | 0.733 | 0.766 | 0.91 |
| Calu-6 | 0.921 | 0.944 | 0.857 | 0.863 | 0.911 | 1.04 | 1.17 | 0.974 | 0.452 | 0.137 |  |  |  |  |  |  |  |  |  |  |
| ChaGo-K-1 | 0.921 | 0.833 | 0.837 | 0.897 | 1 | 0.996 | 0.875 | 0.948 | 1.05 | 0.91 | 0.683 | 0.712 | 0.713 | 0.563 | 0.563 | 0.719 | 0.377 | 0.719 | 0.757 | 0.808 |
| EBC-1 | 0.109 | 0.107 | 0.103 | 0.104 | 0.0908 | 0.507 | 0.616 | 0.458 | 0.325 | 0.135 |  |  |  |  |  |  |  |  |  |  |
| EKVX | 0.67 | 0.418 | 0.74 | 0.705 | 0.751 | 1.15 | 1.02 | 1.05 | 1.01 | 0.935 | 0.868 | 0.818 | 0.891 | 0.871 | 0.937 | 0.956 | 0.534 | 0.63 | 0.916 | 0.697 |
| EMC-BAC-2 | 1.04 | 1.11 | 0.984 | 0.991 | 1.03 | 1.1 | 1.09 | 1.08 | 1.02 | 0.986 | 1.13 | 1.14 | 1.17 | 0.896 | 0.649 | 0.403 |  | 0.407 | 0.485 | 0.499 |
| EPLC-272H | 0.634 |  | 0.634 |  | 0.693 | 0.772 | 1.09 | 0.918 | 0.98 | 0.779 | 0.329 | 0.169 | 0.409 | 0.479 | 0.206 | 0.38 | 0.448 | 0.401 | 0.527 | 0.383 |
| H3255 | 0.788 |  | 0.821 | 0.732 | 0.932 | 0.906 | 0.664 | 0.616 | 0.767 | 0.651 | 0.807 | 0.742 | 0.974 | 0.908 | 0.924 | 0.921 |  | 0.706 |  | 0.735 |
| HARA | 0.92 |  | 0.766 | 0.868 | 0.706 | 1.12 | 1.03 | 1.09 | 1.15 | 1.14 | 0.311 | 0.786 | 0.635 | 0.679 | 0.429 | 0.549 | 0.315 | 0.489 | 0.64 | 0.519 |
| HCC-15 | 1.01 |  | 0.946 | 1.07 | 1.09 | 1.02 | 1.14 | 1.05 | 1.03 | 0.952 | 0.307 | 0.311 | 0.653 | 0.453 | 0.317 | 0.814 |  | 0.821 | 0.907 | 0.916 |
| HCC-44 |  |  |  |  |  | 0.926 | 0.848 | 0.794 | 0.802 | 0.575 | 1.09 | 1.15 | 1 | 1 | 0.155 | 1.14 | 0.94 | 1.07 | 1.1 | 1.11 |
| HCC-78 | 0.584 | 0.73 | 0.576 | 0.58 | 0.593 | 0.653 | 0.42 | 0.445 | 0.543 | 0.369 |  |  |  |  |  | 0.45 | 0.367 | 0.443 | 0.499 | 0.49 |
